From patent US20230346734A1, “COMBINATION THERAPY OF ATRA OR OTHER RETINOIDS WITH IMMUNOTHERAPEUTIC AGENTS BINDING TO BCMA” (JULIUS-MAXIMILIANS-UNIVERSITÄT WÜRZBURG, priority 2020, published 2023)

How the values were obtained:
[1] = tested on: BCMA-CAR T-cells co-incubated with MM.1S; assay: Cytokine release of BCMA-CAR T-cells after stimulation with pretreated MM.1S, ELISA; format: cell-based, human; conditions: MM.1S pretreated 72 hours with 100 nM ATRA and/or 0.01 uM GSI, 20 hours co-incubation
Experimental: MM.1S were incubated with 100 nM ATRA and/or 0.01 uM GSI for 72 hours or were left untreated. Afterwards, BCMA-CAR T-cells were co-incubated with these target cells for 20 hours. Cytokine release of BCMA-CAR T-cells was determined in the supernatant by ELISA. Assay was performed in triplicate wells. Data are presented as mean values+SD of n=3 independent experiments.
(§1) Cytolytic activity was analyzed in a bioluminescence-based assay using firefly-luciferase (ffluc)-transduced target cells. Proliferation was measured by dilution of CFSE proliferation dye by flow cytometry. Therefore, CFSE-labeled CAR T-cells were incubated with target cells for 72 h at a 4:1 effector to target cell ratio. IFNγ and IL-2 were measured by ELISA (Biolegend, Koblenz, Germany) in supernatants obtained after a 20 hour co-culture of T-cells with target cells (effector:target ratio=4:1).

[2] = tested on: BCMA-CAR T-cells co-incubated with MM.1S; assay: Proliferation of CFSE-labeled BCMA-CAR T-cells after stimulation with pretreated MM.1S; format: cell-based, human; conditions: MM.1S pretreated 72 hours with 100 nM ATRA and/or 0.01 uM GSI; CFSE after three days
Experimental: MM.1S were incubated with 100 nM ATRA and/or 0.01 uM GSI for 72 hours or were left untreated. Afterwards, CFSE-labeled BCMA-CAR T-cells were co-incubated with these target cells. Proliferative capacity of BCMA-CAR T-cells was determined after three days by measuring the reduction of CFSE-labeling in effector cells. Data are presented as mean values+SD of n=3 independent experiments.
as §1

[3] = tested on: MM.1S myeloma cells; assay: Cytolytic activity of CD8+ BCMA-CAR T-cells against pretreated MM.1S, bioluminescence-based assay; format: cell-based, human; conditions: MM.1S pretreated 72 hours with 100 nM ATRA and/or 0.01 uM GSI; 4 h co-incubation
Experimental: Myeloma cell lines were incubated with 100 nM ATRA and/or 0.01 uM GSI for 72 hours or were left untreated. Cytolytic activity of CD8^+ BCMA-CAR T-cells was determined in a bioluminescence-based assay after 4 h of co-incubation with target cells. Assay was performed in triplicate wells with 5,000 target cells per well. Data are presented as mean values+SD of n=4 independent experiments.
as §1

[4] = tested on: BCMA RNA levels in OPM-2; assay: BCMA RNA levels in OPM-2 by qRT-PCR; format: cell-based, human; conditions: 50 nM ATRA, 48 hours, qPCR
Experimental: (§2) BCMA RNA levels in MM.1S (n=4) and OPM-2 (n=3) by quantitative reverse transcription PCR (qRT-PCR) assay was quantified after incubation with increasing doses of ATRA for 48 hours. Depicted are mean values+SD.
(§3) Total RNAs were extracted with RNeasy Mini Kit (Qiagen, Hilden, Germany) according to the manufacturer's protocol. Reverse transcription-quantitative polymerase chain reaction (RT-qPCR) analysis of BCMA was performed with 1 μg of total RNA and SuperScript™ II Reverse Transcriptase (Thermo Fisher Scientific, Inc Massachusetts). The quality and integrity of the RNA was verified by a Bioanalyzer 2100 (Agilent Technologies, Santa Clara, CA). The primer sequences used were as follows: BCMA forward primer, 5′-TGTTCTTCTAATACTCCTCCTCT-3′ (SEQ ID NO: 25) and reverse primer, 5′-AACTCGTCCTTTAATGGTTC-3′ (SEQ ID NO: 26). […] RT-qPCR was performed in a 7900HT Real-time PCR System (Thermo Fisher Scientific, Inc Massachusetts) using Quantitec SYBR green Kit (Qiagen, Hilden, Germany) in a 7900 HT Fast Real Time PCR System (Applied Biosystems, Foster City, CA). […] The threshold cycle for each sample was selected from the linear range and converted to a starting quantity by interpolation from a standard curve generated on the same plate for each set of primers. […]

[5] = tested on: BCMA RNA levels in MM.1S; assay: BCMA RNA levels in MM.1S by qRT-PCR; format: cell-based, human; conditions: 50 nM ATRA, 48 hours, qPCR
Experimental: as §2, §3

[6] = tested on: BCMA surface molecules on MM.1S cells; assay: BCMA molecule distribution on MM.1S cells by dSTORM; format: cell-based, human; conditions: vs untreated
Excerpt: Representative photographs of BCMA molecule distribution on untreated and ATRA-treated MM.1S cells visualized by direct stochastic optical reconstruction microscopy (dSTORM).

[7] = tested on: BCMA expression on OPM-2; assay: BCMA expression on OPM-2 by flow cytometry after ATRA treatment; format: cell-based, human
Experimental: (§4) Flow cytometric analysis of BCMA-expression on MM.1S, OPM-2 and NCI-H929 cell lines that had been cultured in the absence or presence of 50 nM ATRA for 72 hours. […] 7-AAD was used to exclude dead cells from analysis.

[8] = tested on: BCMA CD4+ and CD8+ CAR T-cells; assay: Viability of BCMA-CAR T-cells after incubation with ATRA; format: cell-based, human; conditions: increasing doses of ATRA, 72 hours; 7-AAD- T cells
Experimental: Viability of BCMA CD4+ and CD8+ CAR T-cells after incubation with increasing doses of ATRA for 72 hours determined by flow cytometry. […] Data are presented as mean values+SD (n=3).

[9] = tested on: BCMA expression on MM.1S; assay: BCMA expression on MM.1S from bone marrow of ATRA-treated NSG mice; format: in vivo; conditions: NSG/MM1.S; ATRA 30 mg/kg i.p. every day, 4 days; P=0.002
Experimental: NSG mice were inoculated with MM.1S cells. After twelve days, mice were i.p. injected with 30 mg/kg ATRA for 4 days. BCMA-expression on MM.1S cells obtained from bone marrow of untreated and ATRA-treated mice was analysed by flow cytometry.
The University of Wurzburg Institutional Animal Care and Use Committee approved all mouse experiments. Six- to eight-week old female NSG (NOD-scid IL2rynull) mice were obtained from Charles River and inoculated by tail vein injection with 2×10^6 MM.1S/ffluc_GFP at day 0 and randomly allocated to ATRA-treatment and control group. ATRA (Sigma Aldrich, Darmstadt, Germany) was formulated in corn oil and administered by intraperitoneal (i.p) injection (30 mg/kg) for four days, starting twelve days after tumor inoculation.
This encouraged experiments in a murine xenograft model of myeloma (NSG/MM1.S). In a first set of experiments, n=6 mice were inoculated with MM1.S cells (2×10^6 cells given i.v. by tail vein injection) for 12 days to establish systemic myeloma, and then administered a 4-day treatment course with either ATRA (n=3 mice; 30 mg/kg given i.p. every day) or solvent control (n=3 mice). The following day, mice were sacrificed, MM.1S myeloma cells were isolated from bone marrow and BCMA expression analyzed by flow cytometry. […] The in vivo upregulation of BCMA after GSI treatment was shown by Pont et. al. in 2019^40.

[10] = tested on: EGFRt_BCMA-CAR transgene expression of BCMA CD4+ and CD8+ CAR T-cells; assay: EGFRt_BCMA-CAR transgene expression of BCMA-CAR T-cells after incubation with ATRA; format: cell-based, human; conditions: increasing doses of ATRA, 72 hours; EGFRt+ T cells
Experimental: EGFRt_BCMA-CAR transgene expression of BCMA CD4+ and CD8+ CAR T-cells after incubation with increasing doses of ATRA for 72 hours determined by flow cytometry. […] Data are presented as mean values+SD (n=3).

[11] = tested on: BCMA expression on primary myeloma cells; assay: BCMA expression on primary myeloma cells by flow cytometry after ATRA treatment
[12] = tested on: BCMA expression on MM.1S; assay: BCMA expression on MM.1S by flow cytometry after ATRA treatment; format: cell-based, human
Experimental: as §4

[13] = tested on: BCMA expression on NCI-H929; assay: BCMA expression on NCI-H929 by flow cytometry after ATRA treatment
[14] = deltaMFI at baseline normalized to 1, 72 hours

effect on expression of the EGFRt_BCMA-CAR transgene [10]: did not diminish
SMILES: CC1=C(/C=C/C(C)=C/C=C/C(C)=C/C(=O)O)C(C)(C)CCC1 [ATRA, all-trans retinoic acid]
cytokine release of BCMA-CAR T-cells [1]: enhanced | proliferative capacity of BCMA-CAR T-cells [2]: enhanced proliferative capacity | cytolytic activity of BCMA-CAR T-cells against pretreated vs non-treated target cells [3]: superior cytolysis | relative increase in BCMA transcripts [4]: 2.1 fold | relative increase in BCMA transcripts [5]: 1.8 fold | BCMA surface molecules by dSTORM after ATRA treatment [6]: increase of BCMA surface molecules | time for BCMA expression to return to baseline levels upon discontinuation of ATRA treatment [7]: ≤ 72 h | BCMA expression when ATRA treatment was recommenced ([7]; 72 hours after re-exposition): increased again with the same amplitude | BCMA expression, deltaMFI ([7]; ATRA (50 nM per FIG. 1) for 72 hours, untreated deltaMFI 3,558): 7,358 | relative increase in BCMA expression after ATRA treatment [7, 14]: 1.9 fold | effect on viability of BCMA-CAR T-cells [8]: no negative effect | BCMA expression on MM.1S myeloma cells from bone marrow vs control mice [9]: Significantly higher BCMA expression | BCMA expression once exposure to ATRA was discontinued ([11]; 100 nM ATRA, 24 hours after removal): declined to baseline levels | increase in deltaMFI for BCMA expression, average ([11]; 100 nM ATRA, 72 hours): 1.6 × | BCMA expression upon re-exposure to ATRA ([11]; 72 hours after re-exposition): increased again | BCMA expression by flow cytometry after ATRA ([11]; n=5 patients, 72 hours, 100 nM P=0.04, 50 nM P=0.006, 25 nM P=0.04): significant increase | time for BCMA expression to return to baseline levels upon discontinuation of ATRA treatment [12]: ≤ 72 h | BCMA expression when ATRA treatment was recommenced ([12]; 72 hours after re-exposition): increased again with the same amplitude | BCMA expression, deltaMFI ([12]; ATRA (50 nM per FIG. 1) for 72 hours, untreated deltaMFI 1,098): 2,709 | relative increase in BCMA expression after ATRA treatment [12, 14]: 1.9 fold | time for BCMA expression to return to baseline levels upon discontinuation of ATRA treatment [13]: ≤ 72 h | BCMA expression when ATRA treatment was recommenced ([13]; 72 hours after re-exposition): increased again with the same amplitude | BCMA expression, deltaMFI ([13]; ATRA (50 nM per FIG. 1) for 72 hours, untreated deltaMFI 9,883): 13,891 | relative increase in BCMA expression after ATRA treatment [13, 14]: 1.7 fold
